Data published in ChEMBL document CHEMBL3603790, “2- and 3-Fluoro-3-deazaneplanocins, 2-fluoro-3-deazaaristeromycins, and 3-methyl-3-deazaneplanocin: Synthesis and antiviral properties” (Bioorg Med Chem, 2015).
The source made the active and inactive calls. No cut-off for these calls is given here.

Tested on: not listed separately
Assay: Selectivity index, ratio of CC50 for HFF to IC50 for HCMV
Type: functional
Details: not given

Row | Compound | Ratio CC50/IC50
1 | Cc1cnc(N)c2ncn([C@@H]3C=C(CO)[C@@H](O)[C@H]3O)c12 | 38.6

Tested on: not listed separately
Assay: Selectivity index, ratio of CC50 for MDCK cells to IC50 for Influenza A virus H5N1 virus
Type: functional
Details: not given

Row | Compound | Ratio CC50/IC50
2 | Cc1cnc(N)c2ncn([C@@H]3C=C(CO)[C@@H](O)[C@H]3O)c12 | 3.3

Tested on: not listed separately
Assay: Cytotoxicity against African green monkey Vero cells relative to control
Type: cell-based
Details: chlorocebus sabaeus

Row | Compound | CC50 [µM]
3 | Cc1cnc(N)c2ncn([C@@H]3C=C(CO)[C@@H](O)[C@H]3O)c12 | 228

Tested on: Cowpox virus
Assay: Antiviral activity against Cowpox virus infected in HFF after 3 days by neutral red dye-based plaque reduction assay
Type: functional, organism-based
Details: not given

Row | Compound | Activity
4 | Cc1cnc(N)c2ncn([C@@H]3C=C(CO)[C@@H](O)[C@H]3O)c12 | inactive

Tested on: MA104
Assay: Antiviral activity against Parainfluenza virus infected in monkey MA104 cells after 3 days by neutral red dye-based plaque reduction assay
Type: functional, cell-based
Details: Paramyxoviridae

Row | Compound | Activity
5 | Cc1cnc(N)c2ncn([C@@H]3C=C(CO)[C@@H](O)[C@H]3O)c12 | inactive

Tested on: not listed separately
Assay: Cytotoxicity against MDCK cells
Type: cell-based, Canis lupus familiaris
Details: dog, MDCK cells

Row | Compound | CC50 [µM]
6 | Cc1cnc(N)c2ncn([C@@H]3C=C(CO)[C@@H](O)[C@H]3O)c12 | 250

Tested on: Tacaribe virus
Assay: Antiviral activity against Tacaribe virus infected in African green monkey Vero 76 cells after 3 days by neutral red dye-based plaque reduction assay
Type: functional, organism-based
Details: Mammarenavirus tacaribeense, 72 h

Row | Compound | IC50 [nM]
7 | Cc1cnc(N)c2ncn([C@@H]3C=C(CO)[C@@H](O)[C@H]3O)c12 | 1200

Tested on: Influenza A virus
Assay: Antiviral activity against Influenza A virus H3N2 infected in MDCK cells after 3 days by neutral red dye-based plaque reduction assay
Type: functional, organism-based
Details: not given

Row | Compound | Activity
8 | Cc1cnc(N)c2ncn([C@@H]3C=C(CO)[C@@H](O)[C@H]3O)c12 | inactive

Tested on: not listed separately
Assay: Selectivity index, ratio of CC50 for African green monkey Vero 76 cells to IC50 for Tacaribe virus
Type: functional
Details: not given

Row | Compound | Ratio CC50/IC50
9 | Cc1cnc(N)c2ncn([C@@H]3C=C(CO)[C@@H](O)[C@H]3O)c12 | 72

Tested on: not listed separately
Assay: Selectivity index, ratio of CC50 for African green monkey Vero cells to IC50 for Yellow fever virus
Type: functional
Details: not given

Row | Compound | Ratio CC50/IC50
10 | Cc1cnc(N)c2ncn([C@@H]3C=C(CO)[C@@H](O)[C@H]3O)c12 | >100

Tested on: unidentified adenovirus
Assay: Antiviral activity against Adenovirus infected in human A549 cells after 3 days by neutral red dye-based plaque reduction assay
Type: functional, organism-based
Details: not given

Row | Compound | Activity
11 | Cc1cnc(N)c2ncn([C@@H]3C=C(CO)[C@@H](O)[C@H]3O)c12 | inactive

Tested on: not listed separately
Assay: Cytotoxicity against MDCK cells relative to control
Type: cell-based, Canis lupus familiaris
Details: dog

Row | Compound | CC50 [µM]
12 | Cc1cnc(N)c2ncn([C@@H]3C=C(CO)[C@@H](O)[C@H]3O)c12 | > 362

Tested on: SARS-CoV
Assay: Antiviral activity against SARS coronavirus infected in African green monkey Vero E6 cells after 3 days by neutral red dye-based plaque reduction assay
Type: functional, organism-based
Details: Severe acute respiratory syndrome-related coronavirus

Row | Compound | Activity
13 | Cc1cnc(N)c2ncn([C@@H]3C=C(CO)[C@@H](O)[C@H]3O)c12 | inactive

Tested on: Yellow fever virus
Assay: Antiviral activity against Yellow fever virus infected in African green monkey Vero cells after 3 days by neutral red dye-based plaque reduction assay
Type: functional, organism-based
Details: 72 h

Row | Compound | IC50 [µM]
14 | Cc1cnc(N)c2ncn([C@@H]3C=C(CO)[C@@H](O)[C@H]3O)c12 | 3.6

Tested on: Vaccinia virus
Assay: Antiviral activity against Vaccinia virus infected in HEL cells after 3 days by neutral red dye-based plaque reduction assay
Type: functional, organism-based
Details: Orthopoxvirus vaccinia

Row | Compound | Activity
15 | Cc1cnc(N)c2ncn([C@@H]3C=C(CO)[C@@H](O)[C@H]3O)c12 | inactive

Tested on: Venezuelan equine encephalitis virus
Assay: Antiviral activity against Venezuelan equine encephalitis virus infected in African green monkey Vero cells after 3 days by neutral red dye-based plaque reduction assay
Type: functional, organism-based
Details: not given

Row | Compound | Activity
16 | Cc1cnc(N)c2ncn([C@@H]3C=C(CO)[C@@H](O)[C@H]3O)c12 | inactive

Tested on: Influenza A virus
Assay: Antiviral activity against Influenza A virus H1N1 infected in MDCK cells after 3 days by neutral red dye-based plaque reduction assay
Type: functional, organism-based
Details: not given

Row | Compound | Activity
17 | Cc1cnc(N)c2ncn([C@@H]3C=C(CO)[C@@H](O)[C@H]3O)c12 | inactive

Tested on: HeLa
Assay: Cytotoxicity against human HeLa cells
Type: cell-based
Details: not given

Row | Compound | Activity
18 | Cc1cnc(N)c2ncn([C@@H]3C=C(CO)[C@@H](O)[C@H]3O)c12 | Non-toxic

Tested on: Respiratory syncytial virus
Assay: Antiviral activity against Respiratory syncytial virus infected in monkey MA104 cells after 3 days by neutral red dye-based plaque reduction assay
Type: functional, organism-based
Details: not given

Row | Compound | Activity
19 | Cc1cnc(N)c2ncn([C@@H]3C=C(CO)[C@@H](O)[C@H]3O)c12 | inactive

Tested on: Dengue virus
Assay: Antiviral activity against Dengue virus infected in African green monkey Vero cells after 3 days by neutral red dye-based plaque reduction assay
Type: functional, organism-based
Details: 72 h

Row | Compound | IC50 [µM]
20 | Cc1cnc(N)c2ncn([C@@H]3C=C(CO)[C@@H](O)[C@H]3O)c12 | > 228

Tested on: not listed separately
Assay: Cytotoxicity against African green monkey Vero 76 cells relative to control
Type: cell-based
Details: chlorocebus sabaeus

Row | Compound | CC50 [µM]
21 | Cc1cnc(N)c2ncn([C@@H]3C=C(CO)[C@@H](O)[C@H]3O)c12 | 83.3

Tested on: not listed separately
Assay: Cytotoxicity against African green monkey Vero 76 cells
Type: cell-based
Details: chlorocebus sabaeus, Vero 76 cells

Row | Compound | CC50 [µM]
22 | Cc1cnc(N)c2ncn([C@@H]3C=C(CO)[C@@H](O)[C@H]3O)c12 | 36

Tested on: not listed separately
Assay: Cytotoxicity against HFF
Type: cell-based
Details: human, HFF cells

Row | Compound | CC50 [µM]
23 | Cc1cnc(N)c2ncn([C@@H]3C=C(CO)[C@@H](O)[C@H]3O)c12 | 247

Tested on: not listed separately
Assay: Selectivity index, ratio of CC50 for MDCK cells to IC50 for Influenza B virus
Type: functional
Details: not given

Row | Compound | Ratio CC50/IC50
24 | Cc1cnc(N)c2ncn([C@@H]3C=C(CO)[C@@H](O)[C@H]3O)c12 | >320

Tested on: not listed separately
Assay: Cytotoxicity against human HeLa Ohio-1 cells
Type: cell-based
Details: not given

Row | Compound | Activity
25 | Cc1cnc(N)c2ncn([C@@H]3C=C(CO)[C@@H](O)[C@H]3O)c12 | Non-toxic

Tested on: Enterovirus
Assay: Antiviral activity against Rhinovirus infected in human HeLa Ohio-1 cells after 3 days by neutral red dye-based plaque reduction assay
Type: functional, organism-based
Details: not given

Row | Compound | Activity
26 | Cc1cnc(N)c2ncn([C@@H]3C=C(CO)[C@@H](O)[C@H]3O)c12 | inactive

Tested on: West Nile virus
Assay: Antiviral activity against WNV infected in African green monkey Vero 76 cells after 3 days by neutral red dye-based plaque reduction assay
Type: functional, organism-based
Details: not given

Row | Compound | Activity
27 | Cc1cnc(N)c2ncn([C@@H]3C=C(CO)[C@@H](O)[C@H]3O)c12 | inactive

Tested on: not listed separately
Assay: Cytotoxicity against monkey MA104 cells
Type: cell-based, Macaca mulatta
Details: rhesus monkey

Row | Compound | Activity
28 | Cc1cnc(N)c2ncn([C@@H]3C=C(CO)[C@@H](O)[C@H]3O)c12 | Non-toxic

Tested on: A549
Assay: Cytotoxicity against human A549 cells
Type: cell-based
Details: not given

Row | Compound | Activity
29 | Cc1cnc(N)c2ncn([C@@H]3C=C(CO)[C@@H](O)[C@H]3O)c12 | Non-toxic

Tested on: Human betaherpesvirus 5
Assay: Antiviral activity against HCMV infected in HFF after 3 days by neutral red dye-based plaque reduction assay
Type: functional, organism-based
Details: Human betaherpesvirus 5, 72 h

Row | Compound | IC50 [µM]
30 | Cc1cnc(N)c2ncn([C@@H]3C=C(CO)[C@@H](O)[C@H]3O)c12 | 6.4

Tested on: Rift Valley fever virus
Assay: Antiviral activity against Rift Valley fever virus infected in African green monkey Vero 76 cells after 3 days by neutral red dye-based plaque reduction assay
Type: functional, organism-based
Details: 72 h

Row | Compound | IC50 [µM]
31 | Cc1cnc(N)c2ncn([C@@H]3C=C(CO)[C@@H](O)[C@H]3O)c12 | > 36

Tested on: Influenza B virus
Assay: Antiviral activity against Influenza B virus infected in MDCK cells after 3 days by neutral red dye-based plaque reduction assay
Type: functional, organism-based
Details: 72 h

Row | Compound | IC50 [nM]
32 | Cc1cnc(N)c2ncn([C@@H]3C=C(CO)[C@@H](O)[C@H]3O)c12 | 1100

Tested on: Respiratory syncytial virus
Assay: Antiviral activity against Respiratory syncytial virus infected in human HeLa cells after 3 days by neutral red dye-based plaque reduction assay
Type: functional, organism-based
Details: not given

Row | Compound | Activity
33 | Cc1cnc(N)c2ncn([C@@H]3C=C(CO)[C@@H](O)[C@H]3O)c12 | inactive

Tested on: HEL
Assay: Cytotoxicity against HEL cells
Type: cell-based
Details: human

Row | Compound | Activity
34 | Cc1cnc(N)c2ncn([C@@H]3C=C(CO)[C@@H](O)[C@H]3O)c12 | Non-toxic

Tested on: not listed separately
Assay: Cytotoxicity against African green monkey Vero cells
Type: cell-based
Details: chlorocebus sabaeus, Vero cells

Row | Compound | CC50 [µM]
35 | Cc1cnc(N)c2ncn([C@@H]3C=C(CO)[C@@H](O)[C@H]3O)c12 | > 362

Biological target: not listed separately
Assay: Inhibition of rabbit erythrocytic AdoHcy hydrolase using AdoHcy as substrate assessed as formation of L-homocysteine preincubated for 5 mins followed by substrate addition measured after 1 hr by thiol quantitation reagent-based assay
Design: species or system Oryctolagus cuniculus
Details: not given

Row | Compound | IC50 [nM]
36 | Cc1cnc(N)c2ncn([C@@H]3C=C(CO)[C@@H](O)[C@H]3O)c12 | 41

Tested on: Influenza A virus
Assay: Antiviral activity against Influenza A virus H5N1 infected in MDCK cells after 3 days by neutral red dye-based plaque reduction assay
Type: functional, organism-based
Details: 72 h

Row | Compound | IC50 [µM]
37 | Cc1cnc(N)c2ncn([C@@H]3C=C(CO)[C@@H](O)[C@H]3O)c12 | 76

Tested on: not listed separately
Assay: Cytotoxicity against African green monkey Vero E6 cells
Type: cell-based
Details: chlorocebus sabaeus

Row | Compound | Activity
38 | Cc1cnc(N)c2ncn([C@@H]3C=C(CO)[C@@H](O)[C@H]3O)c12 | Non-toxic
